# Assays:
# [1] = target: T1, Serine/threonine-protein kinase D2 (Homo sapiens) (UniProt Q9BZL6); assay: Selectivity interaction (Kinase panel (KiNativ target engagement assay in Jurkat cells)) EUB0001635a PRKD2; format: cell-based; conditions: at 1 µM
# T1 sequence (whole entry): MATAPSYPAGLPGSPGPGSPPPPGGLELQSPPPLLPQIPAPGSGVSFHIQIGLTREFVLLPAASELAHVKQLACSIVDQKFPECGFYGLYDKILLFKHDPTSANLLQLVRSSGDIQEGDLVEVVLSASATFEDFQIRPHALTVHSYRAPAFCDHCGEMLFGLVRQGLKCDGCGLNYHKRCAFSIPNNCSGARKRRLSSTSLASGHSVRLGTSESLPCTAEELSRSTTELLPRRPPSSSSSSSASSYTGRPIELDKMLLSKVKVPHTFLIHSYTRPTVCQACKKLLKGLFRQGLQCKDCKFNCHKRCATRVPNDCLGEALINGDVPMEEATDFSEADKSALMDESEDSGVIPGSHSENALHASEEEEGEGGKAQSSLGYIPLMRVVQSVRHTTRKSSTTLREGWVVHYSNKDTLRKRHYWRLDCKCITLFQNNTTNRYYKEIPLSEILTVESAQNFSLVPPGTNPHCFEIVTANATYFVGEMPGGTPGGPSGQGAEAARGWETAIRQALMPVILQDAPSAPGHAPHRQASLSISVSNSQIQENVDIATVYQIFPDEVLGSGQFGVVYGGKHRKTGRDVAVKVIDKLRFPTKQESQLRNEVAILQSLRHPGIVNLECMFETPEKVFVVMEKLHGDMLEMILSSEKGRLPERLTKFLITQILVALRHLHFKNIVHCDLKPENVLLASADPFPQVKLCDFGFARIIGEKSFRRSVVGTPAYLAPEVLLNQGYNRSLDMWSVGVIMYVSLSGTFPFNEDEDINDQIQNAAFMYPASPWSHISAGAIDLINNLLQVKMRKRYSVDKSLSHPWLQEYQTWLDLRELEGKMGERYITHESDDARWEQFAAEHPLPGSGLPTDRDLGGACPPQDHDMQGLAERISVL
# [2] = target: T2, NUAK family SNF1-like kinase 2 (Homo sapiens) (UniProt Q9H093); assay: Selectivity interaction (KinomeScan (DiscoverX)) EUB0000666a NUAK2; conditions: at 10 µM
# T2 sequence (whole entry): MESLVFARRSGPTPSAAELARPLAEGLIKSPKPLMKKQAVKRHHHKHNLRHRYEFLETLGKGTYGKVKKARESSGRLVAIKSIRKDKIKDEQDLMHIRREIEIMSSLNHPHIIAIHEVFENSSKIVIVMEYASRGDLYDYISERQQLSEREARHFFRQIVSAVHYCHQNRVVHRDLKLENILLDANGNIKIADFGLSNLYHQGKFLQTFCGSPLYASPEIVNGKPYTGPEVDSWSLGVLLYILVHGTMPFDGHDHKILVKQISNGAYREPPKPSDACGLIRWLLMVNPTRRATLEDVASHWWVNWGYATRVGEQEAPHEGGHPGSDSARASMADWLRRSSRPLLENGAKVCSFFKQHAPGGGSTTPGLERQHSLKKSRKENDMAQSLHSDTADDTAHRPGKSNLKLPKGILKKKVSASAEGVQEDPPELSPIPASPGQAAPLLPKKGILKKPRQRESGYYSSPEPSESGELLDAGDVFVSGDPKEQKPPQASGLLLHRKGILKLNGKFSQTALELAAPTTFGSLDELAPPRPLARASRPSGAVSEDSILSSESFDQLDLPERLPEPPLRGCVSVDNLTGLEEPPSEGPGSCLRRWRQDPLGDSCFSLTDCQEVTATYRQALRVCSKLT
# [3] = target: T3, Dual specificity tyrosine-phosphorylation-regulated kinase 2 (Homo sapiens) (UniProt Q92630); assay: Selectivity interaction (LanthaScreen Eu Kinase Binding Assay) EUB0001632a DYRK2; conditions: at 10 µM
# T3 sequence (whole entry): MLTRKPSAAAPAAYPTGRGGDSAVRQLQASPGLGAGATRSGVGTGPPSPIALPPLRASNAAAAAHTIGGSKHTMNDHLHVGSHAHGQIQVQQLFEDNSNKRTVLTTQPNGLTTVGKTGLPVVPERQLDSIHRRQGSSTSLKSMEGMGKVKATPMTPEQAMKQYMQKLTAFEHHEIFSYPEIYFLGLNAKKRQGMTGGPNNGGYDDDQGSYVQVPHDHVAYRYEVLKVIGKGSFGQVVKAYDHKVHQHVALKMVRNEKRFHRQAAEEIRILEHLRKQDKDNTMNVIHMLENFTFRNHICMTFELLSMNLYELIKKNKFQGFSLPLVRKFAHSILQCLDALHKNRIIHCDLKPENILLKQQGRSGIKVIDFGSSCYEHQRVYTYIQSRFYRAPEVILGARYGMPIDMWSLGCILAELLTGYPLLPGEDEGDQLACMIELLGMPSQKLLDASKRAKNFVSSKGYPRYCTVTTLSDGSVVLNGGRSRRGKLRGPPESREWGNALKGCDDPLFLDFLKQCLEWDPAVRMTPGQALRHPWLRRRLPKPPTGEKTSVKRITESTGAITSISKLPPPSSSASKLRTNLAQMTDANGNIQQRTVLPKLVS
# [4] = target: Tyrosine-protein kinase receptor UFO (Homo sapiens) (UniProt P30530); assay: Selectivity interaction (Rxn Biology Kinase assay) EUB0001632a AXL; conditions: at 10 µM
# [5] = target: T4, RNA 5'-monophosphate methyltransferase (Homo sapiens) (UniProt Q7Z5W3); assay: Selectivity interaction (Transferase panel (protein, RNA, and DNA methyltransferases. and EP300 (acetyltransferase))) EUB0000270b BCDIN3D
# T4 sequence (whole entry): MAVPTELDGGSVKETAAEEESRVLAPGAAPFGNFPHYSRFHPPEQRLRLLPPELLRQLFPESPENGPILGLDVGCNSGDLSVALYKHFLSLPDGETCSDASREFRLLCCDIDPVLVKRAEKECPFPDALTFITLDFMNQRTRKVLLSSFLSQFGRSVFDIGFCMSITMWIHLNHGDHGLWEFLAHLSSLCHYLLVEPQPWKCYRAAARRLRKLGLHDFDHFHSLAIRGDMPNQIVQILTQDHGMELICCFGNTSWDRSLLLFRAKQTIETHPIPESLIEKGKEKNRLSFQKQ
# [6] = target: Tyrosine-protein kinase Lyn (Homo sapiens, UniProt P07948); assay: Selectivity interaction (ActivX KiNativ screen (kinase selectivity in THP-1 cell lysates)) EUB0000639a LYN; format: subcellular; conditions: lysate
# [7] = target: Calcium/calmodulin-dependent protein kinase type 1 (Homo sapiens) (UniProt Q14012); assay: Selectivity interaction (KinomeScan (DiscoverX)) EUB0000607a CAMK1; conditions: at 10 µM
# Chain of Calcium/calmodulin-dependent protein kinase type 1 (Homo sapiens) (Q14012 whole entry, looked up): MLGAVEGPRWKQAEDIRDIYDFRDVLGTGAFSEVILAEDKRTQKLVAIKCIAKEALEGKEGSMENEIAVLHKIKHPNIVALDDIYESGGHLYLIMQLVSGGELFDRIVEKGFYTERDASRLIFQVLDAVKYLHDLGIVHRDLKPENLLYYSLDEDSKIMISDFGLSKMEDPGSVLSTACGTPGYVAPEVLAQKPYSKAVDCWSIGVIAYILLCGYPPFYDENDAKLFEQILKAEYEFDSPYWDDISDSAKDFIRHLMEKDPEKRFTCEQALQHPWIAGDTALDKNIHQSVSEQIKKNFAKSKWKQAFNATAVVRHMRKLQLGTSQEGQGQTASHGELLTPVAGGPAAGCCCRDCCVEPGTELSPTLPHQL
# Chain of Tyrosine-protein kinase Lyn (P07948 2-512 limits assumed): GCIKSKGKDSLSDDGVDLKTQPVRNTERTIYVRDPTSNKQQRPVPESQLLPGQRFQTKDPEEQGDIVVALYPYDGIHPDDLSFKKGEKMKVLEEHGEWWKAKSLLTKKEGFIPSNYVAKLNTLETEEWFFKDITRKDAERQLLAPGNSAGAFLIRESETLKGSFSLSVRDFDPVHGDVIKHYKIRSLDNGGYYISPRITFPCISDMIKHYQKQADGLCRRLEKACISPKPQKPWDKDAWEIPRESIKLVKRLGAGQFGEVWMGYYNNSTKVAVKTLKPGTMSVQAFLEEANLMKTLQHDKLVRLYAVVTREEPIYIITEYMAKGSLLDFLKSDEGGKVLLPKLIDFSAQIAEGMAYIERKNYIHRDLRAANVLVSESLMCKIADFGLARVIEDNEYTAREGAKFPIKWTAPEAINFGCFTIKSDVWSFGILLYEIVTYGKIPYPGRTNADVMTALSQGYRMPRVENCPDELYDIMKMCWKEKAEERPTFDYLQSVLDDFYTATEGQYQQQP
# Chain of Tyrosine-protein kinase receptor UFO (Homo sapiens) (P30530 whole entry): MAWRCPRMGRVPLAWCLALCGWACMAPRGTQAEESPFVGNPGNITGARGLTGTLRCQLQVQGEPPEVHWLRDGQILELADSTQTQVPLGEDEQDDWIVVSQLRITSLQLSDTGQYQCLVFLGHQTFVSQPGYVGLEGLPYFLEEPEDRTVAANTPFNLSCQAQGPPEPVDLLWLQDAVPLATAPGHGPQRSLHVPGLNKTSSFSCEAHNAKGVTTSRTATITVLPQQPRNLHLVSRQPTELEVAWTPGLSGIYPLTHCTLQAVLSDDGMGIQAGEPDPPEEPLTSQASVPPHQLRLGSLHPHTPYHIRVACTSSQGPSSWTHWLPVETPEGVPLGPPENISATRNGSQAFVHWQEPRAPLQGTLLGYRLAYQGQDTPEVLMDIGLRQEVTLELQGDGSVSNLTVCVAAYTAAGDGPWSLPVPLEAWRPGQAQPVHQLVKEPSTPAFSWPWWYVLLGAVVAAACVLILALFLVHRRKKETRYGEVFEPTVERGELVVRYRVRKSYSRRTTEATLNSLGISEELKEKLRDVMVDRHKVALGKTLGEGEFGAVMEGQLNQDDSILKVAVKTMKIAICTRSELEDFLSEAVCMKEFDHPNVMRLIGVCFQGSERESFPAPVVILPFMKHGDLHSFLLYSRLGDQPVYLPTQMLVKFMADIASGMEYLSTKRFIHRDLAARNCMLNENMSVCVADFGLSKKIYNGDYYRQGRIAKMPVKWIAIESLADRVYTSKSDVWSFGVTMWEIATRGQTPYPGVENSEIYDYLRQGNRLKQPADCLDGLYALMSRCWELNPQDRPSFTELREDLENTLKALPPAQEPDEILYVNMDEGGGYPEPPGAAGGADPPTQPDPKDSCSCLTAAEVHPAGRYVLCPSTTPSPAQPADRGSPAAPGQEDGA
structure (smiles),measurement,setting,value
C=CC(=O)Nc1ccc(C(=O)Nc2[nH]nc3c2CN(C(=O)N[C@H](CN(C)C)c2ccccc2)C3(C)C)cc1,% of engagement,[1],-4.9%
O=C(NOC[C@H](O)CO)c1ccc(F)c(F)c1Nc1ccc(I)cc1F,% of control,[2],99%
Cn1cc(-n2cnc3c(NCc4nc5cc(Cl)c(Cl)cc5[nH]4)nc(N4CCOCC4)nc32)cn1,% of inhibition,[3],-265%
same,% of inhibition,[4],4.15%
Cc1cc(CN)cc(C)c1-c1ncn(C)c1-c1cncn1C,% activity,[5]; at 1 µM,> 90%
same,% activity,[5]; at 10 µM,> 80%
CC[C@@H]1[C@H](F)C(=O)N[C@@H]1COc1nccc2cc(C(N)=O)c(OC)cc12 [ZIMLOVISERTIB],% of inhibition,[6]; at 0.01 µM,12.8%
same,% of inhibition,[6]; at 0.04 µM,-4.2%
same,% of inhibition,[6]; at 0.2 µM,5.4%
same,% of inhibition,[6]; at 1 µM,6%
same,% of inhibition,[6]; at 5 µM,2.2%
CNC(=O)Nc1ccc(-c2nc(N3CC4CCC(C3)O4)c3cnn(C4CCC5(CC4)OCCO5)c3n2)cc1,% of control,[7],93%
